Source: ChEMBL document CHEMBL1212836, “Pyridazinopsoralens of wide chemotherapeutic interest” (Bioorg Med Chem, 2010)
The source made the active and inactive calls. No cut-off for these calls is given here.

Tests used:
HL-60 [1] = assay: Cytotoxicity against human HL60 cells treated under dark condition after 72 hrs by trypan blue assay; format: functional, cell-based; conditions: HL-60, 72 h
HeLa [2] = assay: Cytotoxicity against human HeLa cells treated under dark condition after 24 hrs by trypan blue assay; format: functional, cell-based
HeLa [3] = assay: Cytotoxicity against human HeLa cells after 24 hrs by trypan blue assay in presence of 0.789 J cm-2 of UVA light; format: functional, cell-based; conditions: light or radiation study
Nucleic Acid [4] = assay: Binding affinity to Salmon testes DNA assessed as drug-DNA complex formation at drug/DNA ratio 0.02 to 0.08 by linear flow dichroism method; format: nucleic-acid assay; conditions: Salmonidae
HL-60 [5] = assay: Cytotoxicity against human HL60 cells treated under dark condition after 24 hrs by trypan blue assay; format: functional, cell-based; conditions: HL-60, 24 h
HL-60 [6] = assay: Cytotoxicity against human HL60 cells after 24 hrs by trypan blue assay in presence of 0.789 J cm-2 of UVA light; format: functional, cell-based; conditions: HL-60, light or radiation study
Nucleic Acid [7] = assay: Stabilization of supercoiled pBR322 DNA-human recombinant topoisomerase 2 complex assessed as linear DNA formation at 8 uM after 60 mins; format: nucleic-acid assay; conditions: Escherichia coli
Nucleic Acid [8] = assay: Stabilization of supercoiled pBR322 DNA-human recombinant topoisomerase 2 complex assessed as linear DNA formation at 5 to 50 uM after 60 mins; format: nucleic-acid assay; conditions: Escherichia coli
[9] = target: DNA topoisomerase 2-alpha (Homo sapiens) (UniProt P11388); assay: Inhibition of human recombinant topoisomerase 2alpha-mediated relaxation of supercoiled pBR322 DNA after 60 mins by agarose gel electrophoresis
Nucleic Acid [10] = assay: Induction of Escherichia coli supercoiled pBR322 DNA cleavage at 5 uM after 30 mins by gel electrophoresis; format: nucleic-acid assay
Nucleic Acid [11] = assay: Induction of Escherichia coli supercoiled pBR322 DNA cleavage at up to 200 uM after 30 mins by gel electrophoresis; format: nucleic-acid assay
Nucleic Acid [12] = assay: Induction of Escherichia coli supercoiled pBR322 DNA cleavage at 50 uM after 30 mins by gel electrophoresis; format: nucleic-acid assay

DNA topoisomerase 2-alpha (Homo sapiens), sequence (P11388 whole entry): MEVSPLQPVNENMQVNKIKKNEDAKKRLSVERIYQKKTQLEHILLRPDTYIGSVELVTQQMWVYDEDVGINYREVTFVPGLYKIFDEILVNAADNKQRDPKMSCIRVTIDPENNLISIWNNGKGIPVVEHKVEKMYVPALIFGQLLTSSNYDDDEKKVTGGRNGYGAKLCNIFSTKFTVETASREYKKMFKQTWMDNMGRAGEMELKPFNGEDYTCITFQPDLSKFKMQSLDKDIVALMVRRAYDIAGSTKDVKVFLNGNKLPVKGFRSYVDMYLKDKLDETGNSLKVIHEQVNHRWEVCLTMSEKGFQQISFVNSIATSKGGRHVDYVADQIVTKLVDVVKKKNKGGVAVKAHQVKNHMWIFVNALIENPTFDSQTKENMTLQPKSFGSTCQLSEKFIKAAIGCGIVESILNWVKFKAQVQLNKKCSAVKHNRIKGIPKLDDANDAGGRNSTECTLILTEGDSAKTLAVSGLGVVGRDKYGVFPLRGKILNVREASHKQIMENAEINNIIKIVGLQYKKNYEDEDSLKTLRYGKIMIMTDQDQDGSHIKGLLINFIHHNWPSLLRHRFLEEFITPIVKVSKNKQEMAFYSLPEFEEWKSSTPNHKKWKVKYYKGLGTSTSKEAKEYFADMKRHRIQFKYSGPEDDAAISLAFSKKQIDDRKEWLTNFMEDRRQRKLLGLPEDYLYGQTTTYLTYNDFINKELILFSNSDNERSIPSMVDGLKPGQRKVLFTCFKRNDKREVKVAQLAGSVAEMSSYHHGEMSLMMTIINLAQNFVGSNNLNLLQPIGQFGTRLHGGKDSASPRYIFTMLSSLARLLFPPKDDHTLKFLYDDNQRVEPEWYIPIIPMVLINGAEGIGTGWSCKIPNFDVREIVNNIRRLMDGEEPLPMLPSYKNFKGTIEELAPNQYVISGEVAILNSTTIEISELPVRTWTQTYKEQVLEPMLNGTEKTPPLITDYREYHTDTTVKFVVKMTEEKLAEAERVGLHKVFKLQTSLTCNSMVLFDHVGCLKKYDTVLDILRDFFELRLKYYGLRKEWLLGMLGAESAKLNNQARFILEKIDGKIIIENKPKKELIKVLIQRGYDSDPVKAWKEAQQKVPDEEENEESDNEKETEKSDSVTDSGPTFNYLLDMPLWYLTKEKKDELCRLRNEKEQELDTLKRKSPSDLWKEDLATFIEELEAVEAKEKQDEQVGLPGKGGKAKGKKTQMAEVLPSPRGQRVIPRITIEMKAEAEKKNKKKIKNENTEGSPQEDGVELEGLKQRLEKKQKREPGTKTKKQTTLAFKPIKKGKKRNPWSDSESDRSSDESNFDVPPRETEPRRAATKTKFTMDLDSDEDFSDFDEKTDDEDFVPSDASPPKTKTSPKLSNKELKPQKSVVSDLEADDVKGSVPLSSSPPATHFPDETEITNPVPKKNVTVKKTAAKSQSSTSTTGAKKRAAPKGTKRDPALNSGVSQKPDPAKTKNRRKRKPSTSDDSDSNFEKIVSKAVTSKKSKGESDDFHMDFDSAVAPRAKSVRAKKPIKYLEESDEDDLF

Activity (Nucleic Acid [4]) | Activity (Nucleic Acid [7]) | Activity (Nucleic Acid [8]) | Activity [9] | Activity (Nucleic Acid [10]) | Activity (Nucleic Acid [11]) | Activity (Nucleic Acid [12]) | SMILES | IC50 (HL-60 [1]) | IC50 (HeLa [2]) | IC50 (HeLa [3]) | IC50 (HL-60 [5]) | IC50 (HL-60 [6])
Active | – | – | Dose-dependent effect | – | inactive | – | Cc1cc(=O)oc2c(C)c3oc4cnncc4c3cc12 | 2600 nM | 8.5 µM | 3.8 µM | 3900 nM | 4100 nM
Active | – | – | Dose-dependent effect | – | – | Active | CCN(CC)CCCNC(=O)c1nncc2oc3c(C)c4oc(=O)cc(C)c4cc3c12 | 900 nM | 11.5 µM | 7.4 µM | 2100 nM | 2200 nM

The remaining lines, values behind:

SMILES | Activity (Nucleic Acid [4]) | Activity (Nucleic Acid [7]) | Activity (Nucleic Acid [8]) | Activity [9] | Activity (Nucleic Acid [10]) | Activity (Nucleic Acid [11]) | Activity (Nucleic Acid [12]) | IC50 (HL-60 [1]) | IC50 (HeLa [2]) | IC50 (HeLa [3]) | IC50 (HL-60 [5]) | IC50 (HL-60 [6])
CCN(CC)CCNC(=O)c1nnc(C(=O)NCCN(CC)CC)c2c1oc1c(C)c3oc(=O)cc(C)c3cc12 | Active | – | – | – | – | – | – | 570 nM | 17.2 µM | 4.4 µM | 1200 nM | 3500 nM
COc1cc(NS(C)(=O)=O)ccc1Nc1c2ccccc2nc2ccccc12 | – | Active | – | – | – | – | – | – | – | – | – | –
CCN(CC)CCCNC(=O)c1nnc(C(=O)NCCCN(CC)CC)c2c1oc1c(C)c3oc(=O)cc(C)c3cc12 | Active | Active | inactive | Dose-dependent effect | Active | – | – | 370 nM | 14.7 µM | 3.5 µM | 900 nM | 800 nM
Cc1cc(=O)oc2c(C)c3oc4c(C(=O)NCCCN(C)C)nnc(C(=O)NCCCN(C)C)c4c3cc12 | Active | – | – | – | – | – | – | 610 nM | 11.5 µM | 3.7 µM | 3800 nM | 2600 nM
Cc1cc(=O)oc2c(C)c3oc4c(C(=O)NCCN(C)C)nnc(C(=O)NCCN(C)C)c4c3cc12 | Active | – | – | – | – | – | – | 410 nM | 11.9 µM | 2.4 µM | 900 nM | 1300 nM
COc1c2occc2cc2ccc(=O)oc12 [METHOXSALEN] | – | – | – | – | – | – | – | > 20000 nM | – | – | > 20000 nM | –
